Reference: patent US11357770B2, “Method of treating immunoglobulin light chain amyloidosis” (ALTERITY THERAPEUTICS LIMITED, priority 2016, dated 2022)
Entries after “also recorded” stand apart in the source; their conditions may differ.

Assays:
[1] = tested on: C. elegans N2 worms; experiment: C. elegans life span experiments; type: in vivo, Caenorhabditis elegans
Description: N2 worms (100 worms/100 μL), at L3 larval stage, were fed for 2 h 100 μg/mL of H7-BJ alone or with 2 nM 1033. Worms were then transferred onto fresh NGM plates seeded with E. coli in the presence of the same drug concentration. Control worms were exposed, under the same conditions, to vehicle alone. After 20 h nematodes were transferred to fresh NGM plates seeded with bacteria and the number of live worms was scored (considered as day 0). To avoid overlapping generations, the worms were then transferred every day, in the absence of fluorodeoxyuridine, until they stopped laying eggs. To test the effect of repeated administration of 1033, worms were fed for 2 h 100 μg/mL of H7-BJ and 2 nM 1033 and then transferred onto fresh NGM plates seeded with E. coli in the presence of the same drug concentration. Then nematodes were transferred every day, in a new NGM plate in the presence of freshly dissolved 2 nM 1033. The number of live worms was determined for each consecutive day until all worms were dead.

[2] = tested on: DAF-16; experiment: DAF-16::GFP nuclear translocation in TJ356 nematodes; type: in vivo, Caenorhabditis elegans; conditions: 100 μg/mL H7-BJ 2 h with 2 nM 1033, 50 μM TETRA or 5 mM NAC
Description: (A) Image of DAF-16::GFP expression in control vehicle-fed and (B) cardiotoxic LC-fed worms (100 μg/mL H7-BJ for 2 h). (C-D) The subcellular distribution of DAF-16 expression in worms fed 2 h: vehicle, 100 μg/mL H7-BJ with or without 2 nM 1033, 50 μM tetracycline (TETRA) or 5 mM N-acetyl-cysteine (NAC). According to DAF-16 localization worms were divided into two phenotypes including “cytosolic” and “nuclear”. The percentage of DAF-16 localization in respect to vehicle fed worms was calculated based on 3 experiments, N=100. Mean±SE. **p<0.01 vs. vehicle, ºp<0.05 and ººp<0.01 vs. cardiotoxic LC, one-way ANOVA and Bonferroni's post hoc test. (E/F) Transgenic worms were fed with 1 mM H2O2 for 30 minutes as a positive control. DAF-16::GFP distribution (E) and HSP-16.2 and SOD-3 expression visualized by GFP-fluorescence (F).
(§1) DAF-16::green fluorescent protein (GFP) nuclear translocation was evaluated in TJ356 nematodes. Pharyngeal expression of HSP-16.2::GFP and SOD-3::GFP was determined in CL2070 and CF1553 worms, respectively. […] Organisms were scored as positive for nuclear localization when green foci were observed throughout the entire body from head to tail and as cytosolic when DAF-16::GFP was diffuse. The number of worms with each level of translocation were counted (at least 100 worms/condition). […] Average pixel intensity values were calculated by sampling images of different animals. […]

[3] = tested on: H7-BJ cardiotoxic LC; experiment: Amplex Red H2O2 assay; type: biochemical, human; conditions: 100 μg/mL H7-BJ incubated with 2 nM 1033, room temperature
Description: H7-BJ and MM2-BJ proteins (100 μg/mL) in 10 mM sodium phosphate buffer (PB), pH 7.4, were incubated at room temperature in the presence or absence of 50 μM Chelex® resin or 2 nM 5,7-dichloro-8-hydroxy-2-(dimethylaminomethyl)quinoline (1033). Different times after incubation (0-2 h), 2 μL of solutions were put into a 96-well black plate, diluted 1:100 (vol/vol) with 10 mM PBS, pH 7.4, and the amount of H2O2 generated was determined by using the Amplex Red assay kit (Molecular probes, Life Technologies). To this end, 50 μL working solution of 100 μM Amplex Red and 200 mU/mL horseradish peroxidase in 10 mM PB, pH 7.4, was added to each well. The plate was shaken and incubated at room temperature for 30 min, protected from light. The fluorescence was read on a Tecan Infinite M200 microplate reader (Tecan, Austria) at excitation wavelength of 563 nm and emission wavelength of 587 nm. Averages and standard deviations were converted to H2O2 concentrations.

[4] = tested on: C. elegans; experiment: Endogenous metal levels (Cu, Zn, Fe) in C. elegans; type: in vivo, Caenorhabditis elegans; conditions: 100 μg/mL H7-BJ + 2 nM 1033
Description: FIG. 3 provides graphical representations of endogenous metal levels and the effects of added copper on C. elegans pharyngeal function. Worms fed with 100 μg/mL MM2-BJ (myeloma), 100 μg/mL cardiotoxic LC H7-BJ, cardiotoxic LC+ 2 nM 1033, or metal free water (vehicle) were analysed for the amount of endogenous Cu (A), Zn and Fe (B).

[5] = tested on: SOD-3; experiment: Pharyngeal expression of SOD-3::GFP in CF1553 worms; type: in vivo, Caenorhabditis elegans; conditions: 100 μg/mL H7-BJ + 2 nM 1033, CF1553 worms
Description: (§2) Transgenic worms were fed for 2 h with: Vehicle (i, 5 mM PBS, pH 7.4) 100 μg/mL MM2-BJ (ii, Myeloma), 100 μg/mL H7-BJ (iii, Cardiotoxic LC), or 2 nM 1033 (iv, Cardiotoxic LC+ 1033). (A) Images of the HSP-16.2 expression as overlays of GFP-fluorescence and light microscopy in CL2070 transgenic worms. Scale bar 50 μm. (C) Images of SOD-3 expression as GFP-fluorescence (arrows) in CF1553 transgenic worms. Scale bar 50 μm. Quantified GFP intensity in (B) CL2070 and (D) CF1553 worms in response to treatments. Fluorescence intensity in each group was calculated as mean grey value+SE based on 3 experiments, N=25. **p<0.01 vs. Vehicle and ºp<0.05 and ººp<0.01 vs. Cardiotoxic LC, one-way ANOVA and Bonferroni's post hoc test.
as §1, with “animals. Mean pixel intensity for each experimental group was calculated using Cell-F software (Olympus).” for “animals.”

[6] = Stability of the drug; type: physicochemical
[7] = tested on: HSP-16.2; experiment: Pharyngeal expression of HSP-16.2::GFP in CL2070 worms; type: in vivo, Caenorhabditis elegans; conditions: 100 μg/mL H7-BJ + 2 nM 1033, CL2070 worms
Description: as §2
as §1, with “animals. Mean pixel intensity for each experimental group was calculated using Cell-F software (Olympus).” for “animals.”

[8] = tested on: C. elegans; experiment: Pharyngeal function, drugs administered after damage by cardiotoxic LC; type: in vivo, Caenorhabditis elegans; conditions: H7-BJ 1.5 h
Description: Pharyngeal performance of worms fed 100 μg/mL H7-BJ (Cardiotoxic LC) for 1.5 h and then treated for 30 min with 20 µM tetracycline (TETRA), 0.5-2 nM 1033 alone or together with 20 μM TETRA. Control worms fed vehicle alone. **p<0.001, *p<0.005 vs. vehicle, ººp<0.001 vs. Cardiotoxic LC, one-way ANOVA and Bonferroni's post hoc test. §§ p<0.01 significant interaction vs. worms fed Cardiotoxic LC+ 0.5 nM 1033, two-ways ANOVA and Bonferroni's post hoc test.
To reflect circumstances most likely encountered in the clinic drugs were administered to worms when the pharynx was already damaged by cardiotoxic LC. […] Then drugs were administered for 30 min and the pumping rate was scored.
Feeding experiments in which nematodes were fed H7-BJ for 1.5 h to generate pharangeal dysfunction, subsequently 20 μM TETRA, 0.5 nM 1033, 2 nM 1033, 20 μM TETRA and 0.5 nM 1033.

[9] = tested on: C. elegans; experiment: C. elegans pharyngeal pumping rate (LC-induced pharyngeal dysfunction); conditions: for ROS generation and pumping dysfunction caused by cardiotoxic LC: 2 nM 1033, 50 μM TETRA or 5 mM NAC with 100 μg/mL LC
Description: Worms were fed for 2 h with 100 μg/mL H7-BJ in the absence or presence of 0-25 nM 1033. Control worms received vehicle alone (dotted line). Each value is the mean±SE, n=30. […] (B) Images obtained from the overlay of a contrast phase and MitoSOX fluorescence (arrows). Scale bar 50 μm. (C) The effects of cardiotoxic LC, 1033, cardotoxic LC+1033, H2O2 and H2O2+1033 on pharyngeal function. (D) The effects of Chelex® and EDTA on LC induced pharyngeal dysfunction.
MM2-BJ (Myeloma) and H7-BJ (Cardiotoxic LC) and in 5 mM PBS, pH 7.4, were administered to worms (100 worms/100 μL) at 100 μg/mL alone or with 50 μM TETRA or 5 mM NAC. Control worms received vehicle alone (Vehicle). After incubation for 2 h in the absence of OP50 E. coli, worms were plated on NGM plates seeded with bacteria.
Bristol N2 strain, transgenic CL2070 dvIs70 Is[hsp-16.2::gfp; rol-6(su1006)], CF1553 muls84 [(pAD76) sod-3p::GFP+rol-6] and TJ356, zls356Is[daf-16::daf-16-gfp; rol-6] were obtained from the Caenorhabditis elegans Genetic Center (CGC, University of Minnesota, USA) and propagated at 20° C. on solid Nematode Growth Medium (NGM) seeded with E. coli OP50 (from CGC) for food. The effect of LC on pharyngeal behaviour was investigated (Diomede et al. 2014). Briefly, ancestral N2 and transgenic CL2070, TJ356 and CF1553 worms were incubated with 100 μg/mL LC listed in Table 1A (100 worms/100 μL) in 5 mM PBS, pH 7.4. Control worms were incubated with 5 mM PBS, pH 7.4 (Vehicle) only. After 2 h of incubation on orbital shaking, worms were transferred onto NGM plates seeded with OP50 E. coli. The pharyngeal pumping rate, measured by counting the number of times the terminal bulb of the pharynx contracted over a 1-minute interval, was scored 20 h later. Experiments were also performed by feeding worms for 2 h with 100 μg/mL of H6-BJ, H7-BJ, H18-BJ, MM2-BJ, MM4-BJ or MM7-BJ alone or with 125 μM copper (as CuSO4).
The experimental conditions of Example 4 were repeated with cardiotoxic LC H7-BJ with or without 1033, Chelex® resin or EDTA as well as 1033, H2O2 and H2O2 together with 1033.

Row | Compound | median survival ([1]; H7-BJ + 2 nM/day 1033 (repeated administration), vehicle 13 days) | protective effect on survival, single dose ([1]; single dose of 1033 at 2 nM, H7-BJ-fed worms) | activation (nuclear translocation) of DAF-16 induced by the cardiotoxic LC [2] | H2O2 (ROS) production by H7-BJ [3] | cardiotoxic LC-induced elevation of copper levels in worms [4] | LC-induced SOD-3 protein expression in the pharynx [5] | stability under physiological conditions and in a variety of standard solvents [6] | LC-induced HSP-16.2 protein expression in the pharynx [7] | maximal recovery of pharangeal function ([8]; then 2 nM 1033) | restoring pharangeal function after damage by H7-BJ ([8]; then 20 μM TETRA or 0.5 nM 1033 alone) | restoring pharyngeal function after damage by H7-BJ ([8]; then drug 30 min, 2 nM 1033 or 20 μM TETRA) | pharyngeal impairment caused by all cardiotoxic LC under investigation ([9]; 2 nM 1033) | ROS generation and pumping dysfunction caused by cardiotoxic LC [9] | pumping rate, 1033 alone ([9]; 1033 alone, no LC) | pharyngeal toxicity induced by exposure to exogenous H2O2 ([9]; H2O2 + 1033) | IC50 ([9]; Caenorhabditis elegans, read-out: IC50 value of TETRA (pharyngeal dysfunction)) | effect on the pharyngeal pumping dysfunction caused by cardiotoxic LC ([9]; 100 μg/mL H7-BJ with 50 μM TETRA or 5 mM NAC, pumping 20 h after plating)
1 | CN(C)Cc1ccc2c(Cl)cc(Cl)c(O)c2n1 [compound 1033, 5,7-dichloro-8-hydroxy-2-(dimethylaminomethyl)quinoline] | 13 days | No protective effect | counteracted | significantly attenuated; also recorded: did prevent the increase | counteracted | significantly reduced | extremely stable | significantly reduced | 53% | no effect | restoring normal pharyngeal function | completely abolished | capable of neutralizing | did not affect | did not counteract | – | –
2 | CN(C)[C@@H]1C(O)=C(C(N)=O)C(=O)[C@@]2(O)C(O)=C3C(=O)c4c(O)cccc4[C@@](C)(O)[C@H]3C[C@@H]12 [TETRA, tetracycline, reference compound] | – | – | – | – | – | – | – | – | – | – | – | – | – | – | – | 20 µM | –
3 | CC(=O)N[C@@H](CS)C(=O)O [NAC, N-acetyl cysteine, reference compound] | – | – | not observed | – | – | – | – | – | – | – | – | – | capable of neutralizing | – | – | – | protective effect
